Experimental data: patent US20230095836A1, “SUBSTITUTED 5,6-DIPHENYL-3(2H)-PYRIDAZINONES FOR USE AS FUNGICIDES” (FMC Corporation, priority 2020, published 2023)

Columns and labels:
Assay type in all cases: in vivo
[1] = system: Zymoseptoria tritici; assay: Test A: test solution sprayed on wheat seedlings, inoculated next day with Zymoseptoria tritici (wheat leaf blotch); disease rating (100 = 100% disease control, 0 = no control; dash = not tested)
Method: The resulting test suspensions were then used in Tests A-F. The test solution was sprayed to the point of run-off on wheat seedlings. The following day the seedlings were inoculated with a spore suspension of Zymoseptoria tritici (the causal agent of wheat leaf blotch) and incubated in a saturated atmosphere at 24° C. for 48 h, and then moved to a growth chamber at 20° C. for 17 days, after which time disease ratings were made. A rating of 100 indicates 100% disease control and a rating of 0 indicates no disease control (relative to the controls). A dash (—) indicates the compound was not tested.

[2] = system: Puccinia recondita f. sp. tritici; assay: Test B: test solution sprayed on wheat seedlings, inoculated next day with Puccinia recondita f. sp. tritici (wheat leaf rust); disease rating (100 = 100% disease control, 0 = no control; dash = not tested)
Description: The resulting test suspensions were then used in Tests A-F. The test solution was sprayed to the point of run-off on wheat seedlings. […] A rating of 100 indicates 100% disease control and a rating of 0 indicates no disease control (relative to the controls). A dash (—) indicates the compound was not tested.

[3] = system: Blumeria graminis f. sp. tritici; assay: Test C: test suspension sprayed on wheat seedlings, inoculated next day with Blumeria graminis f. sp. tritici (wheat powdery mildew); visual disease rating (100 = 100% disease control, 0 = no control; dash = not tested)
Method: The resulting test suspensions were then used in Tests A-F. The test suspension was sprayed to the point of run-off on wheat seedlings. The following day the seedlings were inoculated with a spore dust of Blumeria graminis f. sp. tritici, (also known as Erysiphe graminis f. sp. tritici, the causal agent of wheat powdery mildew) and incubated in a growth chamber at 20° C. for 8 days, after which time visual disease ratings were made. A rating of 100 indicates 100% disease control and a rating of 0 indicates no disease control (relative to the controls). A dash (—) indicates the compound was not tested.

[4] = system: Phakopsora pachyrhizi; assay: Test D: test solution sprayed on soybean seedlings, inoculated next day with Phakopsora pachyrhizi (Asian soybean rust); visual disease rating (100 = 100% disease control, 0 = no control; dash = not tested)
Description: General protocol for preparing test suspensions for Tests A-F: the test compounds were first dissolved in acetone in an amount equal to 3% of the final volume and then suspended at the desired concentration (in ppm) in acetone and purified water (50/50 mix by volume) containing 250 ppm of the surfactant PEG400 (polyhydric alcohol esters). The resulting test suspensions were then used in Tests A-F.
The test solution was sprayed to the point of run-off on soybean seedlings. The following day the seedlings were inoculated with a spore suspension of Phakopsora pachyrhizi (the causal agent of Asian soybean rust) and incubated in a saturated atmosphere at 22° C. for 24 h and then moved to a growth chamber at 22° C. for 8 days, after which time visual disease ratings were made.
A rating of 100 indicates 100% disease control and a rating of 0 indicates no disease control (relative to the controls). A dash (—) indicates the compound was not tested.

[5] = system: Botrytis cinerea; assay: Test E: test suspension sprayed on tomato seedlings, inoculated next day with Botrytis cinerea (tomato Botrytis); visual disease rating (100 = 100% disease control, 0 = no control; dash = not tested)
Method: (§1) The resulting test suspensions were then used in Tests A-F. The test suspension was sprayed to the point of run-off on tomato seedlings. The following day the seedlings were inoculated with a spore suspension of Botrytis cinerea (the causal agent of tomato Botrytis) and incubated in a saturated atmosphere at 20° C. for 48 h, and then moved to a growth chamber at 24° C. for 3 days, after which time visual disease ratings were made. A rating of 100 indicates 100% disease control and a rating of 0 indicates no disease control (relative to the controls). A dash (—) indicates the compound was not tested.

[6] = system: Alternaria solani; assay: Test F: test suspension sprayed on tomato seedlings, inoculated next day with Alternaria solani (tomato early blight); visual disease rating (100 = 100% disease control, 0 = no control; dash = not tested)
Method: as §1, with “Alternaria solani” for “Botrytis cinerea”, “early blight)” for “Botrytis)”, “27°” for “20°”, “20°” for “24°”

Cn1nc(-c2ccccc2)c(-c2c(F)cccc2F)c(Cl)c1=O [Compound 193]
Test A disease control rating ([1]; 250 ppm): 97% | Test B disease control rating ([2]; 250 ppm): 100% | Test C disease control rating ([3]; 250 ppm): 100% | Test D disease control rating ([4]; 250 ppm): 61% | Test E disease control rating ([5]; 250 ppm): 100% | Test F disease control rating ([6]; 250 ppm): 99%

COc1c(-c2ccc(F)cc2Cl)c(-c2ccc(F)cc2Br)nn(C)c1=O [Compound 162]
Test A disease control rating ([1]; 50 ppm): 100% | Test B disease control rating ([2]; 50 ppm): 89% | Test C disease control rating ([3]; 50 ppm): 98% | Test D disease control rating ([4]; 50 ppm): 13% | Test E disease control rating ([5]; 50 ppm): 99% | Test F disease control rating ([6]; 50 ppm): 16%

CCn1nc(-c2cc(OC)cc(OC)c2)c(-c2c(F)cccc2F)c(Cl)c1=O [Compound 1]
Test A disease control rating ([1]; 250 ppm): 87% | Test B disease control rating ([2]; 250 ppm): 55% | Test C disease control rating ([3]; 250 ppm): 0% | Test D disease control rating ([4]; 250 ppm): 0% | Test E disease control rating ([5]; 250 ppm): 90% | Test F disease control rating ([6]; 250 ppm): 0%

CCc1c(-c2c(F)cccc2F)c(-c2cc(OC)cc(F)c2Br)nn(C)c1=O [Compound 181]
Test A disease control rating ([1]; 50 ppm): 98% | Test B disease control rating ([2]; 50 ppm): 100% | Test C disease control rating ([3]; 50 ppm): 100% | Test D disease control rating ([4]; 50 ppm): 100% | Test E disease control rating ([5]; 50 ppm): 94% | Test F disease control rating ([6]; 50 ppm): 100%

CCn1nc(-c2cc(OC)cc(OC)c2)c(-c2c(F)cccc2F)cc1=O [Compound 32]
Test A disease control rating ([1]; 250 ppm): 0% | Test B disease control rating ([2]; 250 ppm): 9% | Test C disease control rating ([3]; 250 ppm): 29% | Test D disease control rating ([4]; 250 ppm): 0% | Test E disease control rating ([5]; 250 ppm): 80% | Test F disease control rating ([6]; 250 ppm): 0%

COc1cc(F)c(-c2c(-c3cc(OC)ccc3Cl)nn(C)c(=O)c2Cl)c(F)c1 [Compound 96]
Test A disease control rating ([1]; 50 ppm): 100% | Test B disease control rating ([2]; 50 ppm): 100% | Test C disease control rating ([3]; 50 ppm): 97% | Test D disease control rating ([4]; 50 ppm): 100% | Test E disease control rating ([5]; 50 ppm): 96% | Test F disease control rating ([6]; 50 ppm): 100%

COc1cc(OC)cc(-c2nn(C)c(=O)c(C)c2-c2ccc(F)cc2Cl)c1 [Compound 65]
Test A disease control rating ([1]; 50 ppm): 99% | Test B disease control rating ([2]; 50 ppm): 100% | Test C disease control rating ([3]; 50 ppm): 98% | Test D disease control rating ([4]; 50 ppm): 94% | Test E disease control rating ([5]; 50 ppm): 100% | Test F disease control rating ([6]; 50 ppm): 99%

CC(O)c1c(-c2ccc(F)cc2Cl)c(-c2ccc(F)cc2Cl)nn(C)c1=O (racemic) [Compound 131]
Test A disease control rating ([1]; 50 ppm): 96% | Test B disease control rating ([2]; 50 ppm): 74% | Test D disease control rating ([4]; 50 ppm): 19% | Test E disease control rating ([5]; 50 ppm): 97% | Test F disease control rating ([6]; 50 ppm): 0%

CCc1c(-c2c(F)cccc2F)c(-c2cc(OC)cc(F)c2Cl)nn(C)c1=O [Compound 180]
Test A disease control rating ([1]; 50 ppm): 100% | Test B disease control rating ([2]; 50 ppm): 100% | Test C disease control rating ([3]; 50 ppm): 100% | Test D disease control rating ([4]; 50 ppm): 100% | Test E disease control rating ([5]; 50 ppm): 99% | Test F disease control rating ([6]; 50 ppm): 100%

COc1ccc(Cl)c(C2=NN(C)C(=O)CC2c2c(F)cccc2F)c1 (centres unmarked) [Compound 207]
Test A disease control rating ([1]; 50 ppm): 79% | Test B disease control rating ([2]; 50 ppm): 68% | Test C disease control rating ([3]; 50 ppm): 90% | Test D disease control rating ([4]; 50 ppm): 0% | Test E disease control rating ([5]; 50 ppm): 100% | Test F disease control rating ([6]; 50 ppm): 0%

COc1ccc(-c2nn(C)c(=O)cc2-c2c(F)cccc2F)c(F)c1 [Compound 192]
Test A disease control rating ([1]; 250 ppm): 38% | Test B disease control rating ([2]; 250 ppm): 80% | Test C disease control rating ([3]; 250 ppm): 84% | Test D disease control rating ([4]; 250 ppm): 91% | Test E disease control rating ([5]; 250 ppm): 93% | Test F disease control rating ([6]; 250 ppm): 0%

COc1c(-c2ccc(F)cc2Cl)c(-c2ccccc2Cl)nn(C)c1=O [Compound 160]
Test A disease control rating ([1]; 50 ppm): 100% | Test B disease control rating ([2]; 50 ppm): 100% | Test C disease control rating ([3]; 50 ppm): 100% | Test D disease control rating ([4]; 50 ppm): 73% | Test E disease control rating ([5]; 50 ppm): 99% | Test F disease control rating ([6]; 50 ppm): 0%
